Laboratory results: patent US5880258A (dated 1999)
*1 amine or outer side, *2 acyl side, *3 side chain or, on linkers, in order; H or OH if unused. Where a SMILES comes first, the peptide text is derived from it. Where no end group is shown, it is not given here. [ ]: non-standard residue; d: D form. sY = N[C@@H](Cc1ccc(OS(=O)(=O)O)cc1)C(=O)O; Asu = N[C@@H](CCCCCC(=O)O)C(=O)O; dAsu = N[C@H](CCCCCC(=O)O)C(=O)O; Suc = O=C(CCC(=O)[*:2])[*:1]; Ava = NCCCCC(=O)O; βAla = NCCC(=O)O

Target: thrombin (Homo sapiens, UniProt P00734)
Test: anti-thrombin activity; clotting assay (coagulation time with fibrinogen as substrate)
Format: biochemical
Set-up: 100 μl of human-thrombin prepared at 10 NIH units/ml in aforesaid buffer
Conditions: for IC50: concentration corresponding to 50 thrombin units, human-thrombin 10 NIH units/ml, human-fibrinogen 6 mg/ml, read-out: 50% Inhibition Concentration (converted); for Potency: calculated using the definition that HV-1 (54-65) potency is 1
Method: Measurement of anti-thrombin activity was done by looking at anti-coagulant activity as an index using fibrinogen as the substrate. That is, the compounds were dossolved in 200 μl of 0.1 mM Tris-HCl buffer (pH7.5) containing 0.1% polyethyleneglycol-6000, 100 μl of human-thrombin prepared at 10 NIH units/ml in aforesaid buffer, were added 200 μl of human-fibrinogen (Sigma) prepared at 6 mg/ml in aforesaid tris-hydrochloride buffer were added, and the coagulation time of the reaction mixtures were measured. For measuring of coagulation times, coagulation time analyzer (Amelung KC10A) was used. Obtained values were converted into units by using a previously prepared thrombin standard curve. Graphs were prepared by plotting the converted values on the vertical axis, and the concentrations of the compounds on the horizontal axis. In the graphs, the thrombin unit was defined as 100 at a compound concentration of 0. The concentration of compounds corresponding to 50 units were defined as 50% inhibitory concentrations of compounds.

With `CC[C@H](C)[C@H](NC(=O)[C@@H]1CCCN1C(=O)[C@H](CCC(=O)O)NC(=O)[C@H](Cc1ccccc1)NC(=O)CCC(=O)O)C(=O)N1CCC[C@H]1C(=O)N[C@@H](CCC(=O)O)C(=O)N[C@@H](Cc1ccc(O)cc1)C(=O)N[C@@H](Cc1ccc(O)cc1)C(=O)N[C@@H](CC(C)C)C(=O)N[C@@H](CCCCCC(=O)OC)C(=O)OC` [(V)] (Suc-FEPIPEYYL[Asu](OMe)-OMe) the IC50 was 20.7 µM.

`CC[C@H](C)[C@H](NC(=O)[C@@H]1CCCN1C(=O)[C@H](CCC(=O)O)NC(=O)[C@H](Cc1ccccc1)NC(=O)CCC(=O)O)C(=O)N1CCC[C@H]1C(=O)N[C@@H](CCC(=O)O)C(=O)N[C@@H](Cc1ccc(O)cc1)C(=O)N[C@@H](Cc1ccc(O)cc1)C(=O)N[C@@H](CCCCCC(=O)OC)C(=O)OC` [(O)] (Suc-FEPIPEYY[Asu](OMe)-OMe) gave an IC50 of 26 µM.

In the case of `CC[C@H](C)[C@H](NC(=O)[C@@H]1CCCN1C(=O)[C@H](CCC(=O)O)NC(=O)[C@H](Cc1ccccc1)NC(=O)CCC(=O)O)C(=O)N1CCC[C@H]1C(=O)N[C@@H](CCC(=O)O)C(=O)N[C@@H](Cc1ccc(O)cc1)C(=O)N[C@@H](Cc1ccc(O)cc1)C(=O)N[C@@H](CC(C)C)C(=O)N[C@H](CCCCCC(=O)OC)C(=O)OC` [(U)] (Suc-FEPIPEYYL[dAsu](OMe)-OMe), the IC50 is reported as 32.3 µM.

For `CC[C@H](C)[C@H](NC(=O)[C@H](CCC(=O)O)NC(=O)[C@H](CCC(=O)O)NC(=O)[C@H](Cc1ccccc1)NC(=O)[C@H](CC(=O)O)NC(=O)CN)C(=O)N1CCC[C@H]1C(=O)N[C@@H](Cc1ccc(O)cc1)C(=O)N[C@@H](Cc1ccc(OS(=O)(=O)O)cc1)C(=O)N[C@@H](Cc1ccc(O)cc1)C(=O)N[C@@H](CC(C)C)C(=O)N[C@@H](CCC(N)=O)C(=O)O` (single isomer, unassigned) [Sulfated form of (B) peak 2, Gly--Asp--Phe--Glu--Glu--Ile--Pro--Tyr--Tyr(SO3 H)--Tyr--Leu--Gln], the IC50 was 0.63 µM.

GDFEEIPEYYLQ [(A)] showed an IC50 of 9.78 µM.

Work on `CC[C@H](C)[C@H](NC(=O)[C@@H]1CCCN1C(=O)[C@H](CCC(=O)O)NC(=O)[C@H](Cc1ccccc1)NC(=O)CCC(=O)O)C(=O)N1CCC[C@H]1C(=O)N[C@@H](CCC(=O)O)C(=O)N[C@@H](Cc1ccc(O)cc1)C(=O)N[C@@H](Cc1ccc(O)cc1)C(N)=O` [(J)] (Suc-FEPIPEYY-NH2) yielded a Potency of 0.07 and an IC50 of 85.1 µM.

With `CC[C@H](C)[C@H](NC(=O)[C@@H]1CCCN1C(=O)[C@H](CCC(=O)O)NC(=O)[C@H](Cc1ccccc1)NC(=O)[C@H](CC(=O)O)NC(=O)CNC(=O)CCC(=O)O)C(=O)N1CCC[C@H]1C(=O)N[C@@H](CCC(=O)O)C(=O)N[C@@H](Cc1ccc(O)cc1)C(=O)N[C@@H](Cc1ccc(O)cc1)C(=O)N[C@@H](CC(C)C)C(=O)N[C@@H](CCC(N)=O)C(=O)O` [(C)] (Suc-GDFEPIPEYYLQ-OH) the Potency was 1.76 and the IC50 was 2.39 µM.

Compound `CC[C@H](C)[C@H](NC(=O)[C@@H]1CCCN1C(=O)[C@H](CCC(=O)O)NC(=O)[C@H](Cc1ccccc1)NC(=O)CCC(=O)O)C(=O)N1CCC[C@H]1C(=O)N[C@@H](CCC(=O)O)C(=O)N[C@@H](Cc1ccc(OS(=O)(=O)O)cc1)C(=O)N[C@@H](Cc1ccc(OS(=O)(=O)O)cc1)C(=O)N[C@@H](CC(C)C)C(=O)N[C@@H](CCC(N)=O)C(=O)O` [Sulfated form of (G), Suc--Phe--Glu--Pro--Ile--Pro--Glu--Tyr(SO3 H)--Tyr(SO3 H)--Leu--Gln--OH] (Suc-FEPIPE[sY][sY]LQ-OH) has a Potency of 108.87 and an IC50 of 0.0389 µM.

`CC[C@H](C)[C@H](NC(=O)[C@@H]1CCCN1C(=O)[C@H](CCC(=O)O)NC(=O)[C@H](Cc1ccccc1)NC(=O)CCC(=O)O)C(=O)N1CCC[C@H]1C(=O)N[C@@H](CCC(=O)O)C(=O)N[C@@H](Cc1ccc(OS(=O)(=O)O)cc1)C(=O)N[C@@H](Cc1ccc(OS(=O)(=O)O)cc1)C(=O)NCCC(=O)O` [Sulfated form of (K), Suc--Phe--Glu--Pro--Ile--Pro--Glu--Tyr(SO3 H)--Tyr(SO3 H)--NH(CH2)2 COOH] (Suc-FEPIPE[sY][sY][βAla]-OH) showed a Potency of 1.02 and an IC50 of 4.65 µM.

Work on GDFEEIPYYYLQ [(B)] yielded an IC50 of 9 µM.

In the case of `CC[C@H](C)[C@H](NC(=O)[C@@H]1CCCN1C(=O)[C@H](CCC(=O)O)NC(=O)[C@H](Cc1ccccc1)NC(=O)CCC(=O)O)C(=O)N1CCC[C@H]1C(=O)N[C@@H](CCC(=O)O)C(=O)N[C@@H](Cc1ccc(O)cc1)C(=O)N[C@@H](Cc1ccc(O)cc1)C(=O)O` [(I)] (Suc-FEPIPEYY-OH), the Potency is reported as 0.83 and the IC50 is reported as 17.3 µM.

In the case of `CC[C@H](C)[C@H](NC(=O)[C@@H]1CCCN1C(=O)[C@H](CCC(=O)O)NC(=O)CCC(=O)O)C(=O)N1CCC[C@H]1C(=O)N[C@@H](CCC(=O)O)C(=O)N[C@@H](Cc1ccc(OS(=O)(=O)O)cc1)C(=O)N[C@@H](Cc1ccc(OS(=O)(=O)O)cc1)C(=O)N[C@@H](CC(C)C)C(=O)N[C@@H](CCC(N)=O)C(=O)O` [Sulfated form of (H), Suc--Glu--Pro--Ile--Pro--Glu--Tyr(SO3 H)--Tyr(SO3 H)--Leu--Gln--OH] (Suc-EPIPE[sY][sY]LQ-OH), the Potency is reported as < 0.05 and the IC50 is reported as > 142 µM.

With `CC[C@H](C)[C@H](NC(=O)[C@H](CCC(=O)O)NC(=O)[C@H](CCC(=O)O)NC(=O)[C@H](Cc1ccccc1)NC(=O)[C@H](CC(=O)O)NC(=O)CN)C(=O)N1CCC[C@H]1C(=O)N[C@@H](Cc1ccc(O)cc1)C(=O)N[C@@H](Cc1ccc(OS(=O)(=O)O)cc1)C(=O)N[C@@H](Cc1ccc(OS(=O)(=O)O)cc1)C(=O)N[C@@H](CC(C)C)C(=O)N[C@@H](CCC(N)=O)C(=O)O` (single isomer, unassigned) [Sulfated form of (B) peak 1, Gly--Asp--Phe--Glu--Glu--Ile--Pro--Tyr--Tyr(SO3 H)--Tyr(SO3 H)--Leu--Gln] the IC50 was 0.291 µM.

Work on `CC[C@H](C)[C@H](NC(=O)[C@@H]1CCCN1C(=O)[C@H](CCC(=O)O)NC(=O)[C@H](Cc1ccccc1)NC(=O)[C@H](CC(=O)O)NC(=O)CCC(=O)O)C(=O)N1CCC[C@H]1C(=O)N[C@@H](CCC(=O)O)C(=O)N[C@@H](Cc1ccc(OS(=O)(=O)O)cc1)C(=O)N[C@@H](Cc1ccc(OS(=O)(=O)O)cc1)C(=O)N[C@@H](CC(C)C)C(=O)N[C@@H](CCC(N)=O)C(=O)O` [Sulfated form of (F), Suc--Asp--Phe--Glu--Pro--Ile--Pro--Glu--Tyr(SO3 H)--Tyr(SO3 H)--Leu--Gln--OH] (Suc-DFEPIPE[sY][sY]LQ-OH) yielded a Potency of 1.32 and an IC50 of 3 µM.

In the case of `CC[C@H](C)[C@H](NC(=O)[C@@H]1CCCN1C(=O)[C@H](CCC(=O)O)NC(=O)[C@H](Cc1ccccc1)NC(=O)CCC(=O)O)C(=O)N1CCC[C@H]1C(=O)N[C@@H](CCC(=O)O)C(=O)N[C@@H](Cc1ccc(O)cc1)C(=O)N[C@@H](Cc1ccc(O)cc1)C(=O)NCCC(=O)O` [(K)] (Suc-FEPIPEYY[βAla]-OH), the IC50 is reported as 24.6 µM.

Compound `CC[C@H](C)[C@H](NC(=O)[C@@H]1CCCN1C(=O)[C@H](CCC(=O)O)NC(=O)[C@H](Cc1ccccc1)NC(=O)CCC(=O)O)C(=O)N1CCC[C@H]1C(=O)N[C@@H](CCC(=O)O)C(=O)N[C@@H](Cc1ccc(OS(=O)(=O)O)cc1)C(=O)N[C@@H](Cc1ccc(OS(=O)(=O)O)cc1)C(=O)NCCCCC(=O)O` [Sulfated form of (L), Suc--Phe--Glu--Pro--Ile--Pro--Glu--Tyr(SO3 H)--Tyr(SO3 H)--NH(CH2)4 COOH] (Suc-FEPIPE[sY][sY][Ava]-OH) has an IC50 of 2.22 µM.
